Here are results for two substances from PMC7287882, “Dual miRNases for Triple Incision of miRNA Target: Design Concept and Catalytic Performance” (Molecules, 2020).

The subject of assay [1] is miR-17. The experiment in a line: Ribonuclease activity assay with DC or ON and RNase H, miR-17. The assay is classed as biochemical. The following applies: for total extent of miRNA cleavage in the presence of RNase H: miRNA 1 µM, DC or ON 20 µM, buffer (2) pH 7.8, 37 °C, at plateau, by 2 h. How it is done:
It is known that DNA-like antisense oligonucleotides after binding to target RNAs form a substrate for intracellular endonuclease RNases H. RNA hydrolysis in RNA-DNA heteroduplex by RNase H1 occurs at a distance of 6–10 nucleotides from the 5′-end of RNA (approximately one turn of the helix). Our design of the Dual conjugates here was carried out in such a way to ensure that their heteroduplexes with the matching miRNA sequences could serve as potential substrates for RNase H. To achieve that, we ensured that the length of the oligonucleotide recognition motifs A and B within the DC was 8–10 nt, which was expected to be sufficient for interaction and cleavage by RNase H (see Figure 1 and Table 1). As indicated above, a few adenine aromatic basis within each recognition motifs A and B were replaced with 2-aminoadenines to enhance the hybridization ability of the DC with miRNA. […] In order to verify this, as well as to evaluate the ability of RNase H to contribute to the miRNA cleavage catalyzed by DC, we studied the kinetics of the target miRNA cleavage performed (1) by the DC alone; (2) by RNase H, when the target miRNA was hybridized with the nonconjugated Dual oligonucleotide (ON); and (3) by both DC and RNase H present in the same reaction mixture. The study was performed against miR-17, miR-155 and miR-21 using a 20-fold excess of DCs or respective oligonucleotides over the matching miRNA (see Table 1 for sequences).
Figure 6 Cleavage kinetics of 5′-[^32P]-labeled miRNAs by DCs and/or RNase H. (a,d,g). Radioautographs of 18% denaturing PAAG showing the profiles of cleavage of miR-17, miR-155 and miR-21, respectively. Duplexes formed by 5′-[^32P]-miRNA (1 µM) and DC or ON (20 µM) were incubated at 37 °C for 48–72 h. RNase H was taken in the concentration of 5 or 100 u/mL. Lanes Im and T1–imidazole ladder and partial RNA digestion with RNase T1, respectively; control–RNA was incubated in the absence of DC or ON and in the presence of RNase H (100 u/mL); (b,e,h) Time dependency of cleavage of miR-17, miR-155 and miR-21, respectively, by DCs and/or RNase H. Data are presented as mean ± s.e. *—indicates statistically significant difference with p < 0.05; (c,f,i). Positions of miR-17, miR-155 and miR-21 cleavage, respectively, induced by RNase H in duplex with ON (red arrows), and by combination of DC (black arrows) and RNase H. A–2-aminoadenine.
The reaction mixture (10 µL) containing 20 mM Tris-HCl, pH 7.8, 40 mM KCl, 8 mM MgCl2, 1 mM DTT, 0.02 mg/mL BSA, 800 cpm (Cherenkov’s counting) of [^32P]-miRNA, 1 µM unlabeled miRNA, 20 µM either DC or Dual oligonucleotide was incubated at 37 °C for 20 min then RNase H (5 or 100 U/mL) was added and the mixture was further incubated for 48 h. Aliquots were taken at 0, 1, 6, 24 and 48 h then the reaction was quenched, RNA cleavage products were collected and analyzed as described above.

For assay [2], the system named is miR-18a. The experiment in a line: Gel-retardation assay, hybridization with miR-18a. The assay is classed as binding. The note with it: 37 °C, 45 min, mean of 3. An excerpt: We carried out a comparative analysis of the hybridization properties of the developed DCs with the corresponding SCs, which were the products of the first stage of the DCs synthesis. As discussed above, each SC consisted of the corresponding oligonucleotide A, which was complementary to the 5′-region of the matching miRNA target, and the catalytic peptide [LRLRG]2, attached to the 5′-end of this oligonucleotide via a thiohexyl linker (linker 2). […] Indeed, the level of binding of DCs to their miRNA targets reached 96, 90, 75, 55% at equimolar concentration (1 μM), and 99, 96, 92 and 69% at 5-fold excess of DCs over miR-17, miR-18a, miR-21 and miR-155, respectively (Figure 2). […]
The reaction mixture (4 µL) containing 50 mM Tris-HCl, pH 7.0, 200 mM KCl and 1 mM EDTA, 100 cpm (Cherenkov’s counting) of [^32P]-miRNA, 1 μM unlabeled miRNA, a conjugate at a concentration ranging from 0.1 to 10 μM was incubated at 37 °C for 45 min and quenched by adding of a loading buffer (20% ficoll, 0.025% bromophenol blue, 0.025% xylene cyanol). […] Formation of the complex miRNA/conjugate was analyzed by electrophoresis in 15% native PAAG at 4 °C. The gels were analyzed using Molecular Imager FX. The extent of binding of conjugate to miRNA was determined as a ratio of radioactivity measured in the complex to the total radioactivity applied onto the gel lane.

Turning to “CTACCTGC–linker 1–[GRLRL]2–linker 2–AAGCACTTTG [miRNA-17-DC, Dual oligonucleotide-peptide conjugate targeted to miR-17: catalytic peptide [LRLRG]2 between two 2-aminoadenine-containing oligodeoxyribonucleotides]”, the results for the “total extent of miRNA cleavage in the presence of RNase H” value in assay [1] (RNase H 5 u/mL) and in assay [1] (RNase H 100 u/mL) were 44% and 92%, respectively. Further, the “total efficiency of cleavage in the complex with DC relative to the miRNA/ON complex” value in assay [1] (RNase H at both 5 and 100 u/mL) is “more than 1.5 fold”. Further, the “increase in the rate of cleavage by DC with RNase H compared with DC alone” value in assay [1] (after 1 h) is recorded as “up to 10 fold”. In addition, the “increase in the rate of cleavage by DC with RNase H compared with RNase H alone” value in assay [1] (after 1 h) was 1.5 fold.

For the substance “TATCTGC–linker 1–[GRLRL]2–linker 2–ATGCACCTTA [miRNA-18a-DC, Dual oligonucleotide-peptide conjugate targeted to miR-18a: catalytic peptide [LRLRG]2 between two 2-aminoadenine-containing oligodeoxyribonucleotides]”, the “level of binding of DC to miRNA target” value in assay [2] (5-fold excess of DC over miRNA (1 µM), same buffer) amounted to 96%; in assay [2] (equimolar, DC 1 µM : miRNA 1 µM, 50 mM Tris-HCl pH 7.0, 200 mM KCl, 1 mM EDTA) it was 90%.
